The test system of this experiment is L1210 leukemia ip in BDF1 mice, survival T/C. As to the kind of experiment: NCI In Vivo Anticancer Drug Screen. Data for tumor model L1210 Leukemia (intraperitoneal) in B6D2F1 (BDF1) mice. To be noted: endpoint: mean survival time, higher = longer survival. The gist of the method: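 In this screen, tumor-bearing mice given compound are compared to those given vehicle, and their survival values are reported as a treated-to-control quotient.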

Setting [1] is: dose: 100.0 mg/kg/injection, schedule: Q01DX009 (ip), vehicle: saline with Tween-80.
The mark [2] stands for this setting: dose: 100.0 mg/kg/injection, schedule: Q04DX003 (ip), vehicle: saline.
[3] abbreviates: dose: 200.0 mg/kg/injection, schedule: Q01DX009 (ip), vehicle: saline with Tween-80.
Where [4] appears, read: dose: 200.0 mg/kg/injection, schedule: Q04DX003 (ip), vehicle: saline.
Setting [5] is: dose: 400.0 mg/kg/injection, schedule: Q04DX003 (ip), vehicle: saline.
Setting [6] is: dose: 100.0 mg/kg/injection, schedule: Q01DX009 (ip), vehicle: saline.
[7] abbreviates: dose: 100.0 mg/kg/injection, schedule: Q04DX003 (ip), vehicle: saline with Tween-80.
Where [8] appears, read: dose: 200.0 mg/kg/injection, schedule: Q01DX009 (ip), vehicle: saline.
Setting [9] is: dose: 200.0 mg/kg/injection, schedule: Q04DX003 (ip), vehicle: saline with Tween-80.
[10] abbreviates: dose: 400.0 mg/kg/injection, schedule: Q01DX009 (ip), vehicle: saline with Tween-80.
Setting [11] is: dose: 400.0 mg/kg/injection, schedule: Q04DX003 (ip), vehicle: saline with Tween-80.
[12] abbreviates: dose: 100.0 mg/kg/injection, schedule: Q04DX002 (ip), vehicle: Klucel (hydroxypropylcellulose) (HPC).
The mark [13] stands for this setting: dose: 200.0 mg/kg/injection, schedule: Q04DX002 (ip), vehicle: Klucel (hydroxypropylcellulose) (HPC).
Setting [14] is: dose: 400.0 mg/kg/injection, schedule: Q04DX002 (ip), vehicle: Klucel (hydroxypropylcellulose) (HPC).

Where “and” joins values, the source holds several entries; their conditions need not be identical. Equal entries are not always repeated. Toxic doses and inconclusive results are not listed.

As for `CCCCCCCCCCCCCCCCNC(=S)NC1CCCCC1`, the T/C was 104 % of control (dose: 30.0 mg/kg/injection, schedule: Q01DX015 (ip), vehicle: carboxymethylcellulose (CMC)); 98 % of control (dose: 60.0 mg/kg/injection, schedule: Q01DX015 (ip), vehicle: carboxymethylcellulose (CMC)); 100 % of control (dose: 100.0 mg/kg/injection, schedule: Q01DX001 (ip), vehicle: acetone); 102 % of control under setting [1]; 101 % of control under setting [2]; 94 % of control (dose: 120.0 mg/kg/injection, schedule: Q01DX015 (ip), vehicle: carboxymethylcellulose (CMC)). In addition, the T/C (dose: 200.0 mg/kg/injection, schedule: Q01DX001 (ip), vehicle: acetone) was 88 % of control; the T/C under setting [3] was 96 % of control; the T/C under setting [4] was 97 % of control; the T/C (dose: 240.0 mg/kg/injection, schedule: Q01DX015 (ip), vehicle: carboxymethylcellulose (CMC)) was 94 % of control and 102 % of control; the T/C (dose: 400.0 mg/kg/injection, schedule: Q01DX001 (ip), vehicle: acetone) was 91 % of control; the T/C under setting [5] was 101 % of control. For the setting “dose: 480.0 mg/kg/injection, schedule: Q01DX015 (ip), vehicle: carboxymethylcellulose (CMC)”, the T/C was 101 % of control.

Regarding `O=C(Nc1ccc(F)cc1)Nc1ccc(CCO)cc1`, the T/C runs as follows: (dose: 100.0 mg/kg/injection, schedule: Q01DX001 (ip), vehicle: carboxymethylcellulose (CMC)) 99 % of control; (dose: 100.0 mg/kg/injection, schedule: Q01DX009 (ip), vehicle: carboxymethylcellulose (CMC)) 101 % of control and 104 % of control; (dose: 100.0 mg/kg/injection, schedule: Q04DX002 (ip), vehicle: carboxymethylcellulose (CMC)) 92 % of control and 87 % of control and 91 % of control; (dose: 100.0 mg/kg/injection, schedule: Q04DX003 (ip), vehicle: carboxymethylcellulose (CMC)) 95 % of control; (dose: 200.0 mg/kg/injection, schedule: Q01DX001 (ip), vehicle: carboxymethylcellulose (CMC)) 92 % of control; (dose: 200.0 mg/kg/injection, schedule: Q01DX009 (ip), vehicle: carboxymethylcellulose (CMC)) 92 % of control and 98 % of control. In addition, the T/C was 87 % of control and 88 % of control and 90 % of control (dose: 200.0 mg/kg/injection, schedule: Q04DX002 (ip), vehicle: carboxymethylcellulose (CMC)); 101 % of control (dose: 200.0 mg/kg/injection, schedule: Q04DX003 (ip), vehicle: carboxymethylcellulose (CMC)); 92 % of control (dose: 400.0 mg/kg/injection, schedule: Q01DX009 (ip), vehicle: carboxymethylcellulose (CMC)); 93 % of control and 87 % of control and 88 % of control (dose: 400.0 mg/kg/injection, schedule: Q04DX002 (ip), vehicle: carboxymethylcellulose (CMC)); 91 % of control (dose: 400.0 mg/kg/injection, schedule: Q04DX003 (ip), vehicle: carboxymethylcellulose (CMC)).

`CCOC(=O)c1cc(C)nnc1C(=O)OCC`: the T/C was 104 % of control under setting [1]; 100 % of control under setting [6]; 97 % of control under setting [7]; 107 % of control under setting [2]; 104 % of control under setting [3]; 103 % of control under setting [8]. Besides, the T/C was 106 % of control under setting [9]; 112 % of control under setting [4]; 103 % of control under setting [10]; 101 % of control (dose: 400.0 mg/kg/injection, schedule: Q01DX009 (ip), vehicle: saline); 101 % of control under setting [11]; 98 % of control under setting [5].

On to `O=C1OC(c2cccc([N+](=O)[O-])c2)=N/C1=C\c1ccccc1`, for which the T/C by setting is: under setting [1], 94 % of control; under setting [3], 102 % of control; under setting [10], 94 % of control.

Consider `C=CCOc1ccccc1Cl`, for which the T/C runs as follows: (dose: 100.0 mg/kg/injection, schedule: Q01DX009 (ip), vehicle: Klucel (hydroxypropylcellulose) (HPC)) 110 % of control; (dose: 100.0 mg/kg/injection, schedule: Q04DX003 (ip), vehicle: Klucel (hydroxypropylcellulose) (HPC)) 94 % of control; (dose: 200.0 mg/kg/injection, schedule: Q01DX009 (ip), vehicle: Klucel (hydroxypropylcellulose) (HPC)) 88 % of control; (dose: 200.0 mg/kg/injection, schedule: Q04DX003 (ip), vehicle: Klucel (hydroxypropylcellulose) (HPC)) 106 % of control; (dose: 400.0 mg/kg/injection, schedule: Q01DX009 (ip), vehicle: Klucel (hydroxypropylcellulose) (HPC)) 106 % of control; (dose: 400.0 mg/kg/injection, schedule: Q04DX003 (ip), vehicle: Klucel (hydroxypropylcellulose) (HPC)) 103 % of control.

Regarding `CCCCCCCC(=O)Nc1ccc(C)cc1C`, the T/C under setting [7] is 95 % of control, the T/C under setting [9] is 98 % of control and the T/C under setting [11] is 94 % of control.

`CCCCCCCCCCCCCCCC(=O)N(c1ccc(N)cc1)C(C)CCCN(CC)CC` (stereo unspecified): the T/C by setting is: under setting [1], 100 % of control; under setting [7], 98 % of control; under setting [3], 100 % of control; under setting [9], 97 % of control; under setting [10], 100 % of control; under setting [11], 90 % of control.

In the case of `CCC(=O)Nc1cccc(OC(=O)N(C(C)C)C(C)C)c1`, the T/C is 93 % of control under setting [7], 93 % of control under setting [9] and 104 % of control under setting [11].

For `C[N+](C)(C)CCCOC(=O)C1C2CC3OC(=O)C1C3C2` (stereo unspecified), the T/C was 101 % of control under setting [2] and 96 % of control under setting [4].

As to `CCCCn1cnc2c(=S)nc(N)[nH]c21`, the T/C reads like this: (dose: 3.3 mg/kg/injection, schedule: Q01DX Z (ip), vehicle: methylcellulose (MC)) 115 % of control; (dose: 5.0 mg/kg/injection, schedule: Q01DX Z (ip), vehicle: methylcellulose (MC)) 118 % of control; (dose: 19.0 mg/kg/injection, schedule: Q04DX003 (ip), vehicle: saline with Tween-80) 111 % of control; (dose: 66.0 mg/kg/injection, schedule: Q04DX003 (ip), vehicle: saline with Tween-80) 164 % of control.

Take `COC(=O)C1=C(\O)CCCC/C=C\1C(=O)OC`: the T/C is, setting by setting: under setting [12], 87 % of control; under setting [13], 97 % of control; under setting [14], 107 % of control.

Consider `CC[N+]1=NC2CCCC(C2)C1` (stereo unspecified), for which the T/C is 96 % of control (dose: 50.0 mg/kg/injection, schedule: Q01DX009 (ip), vehicle: saline); 86 % of control under setting [6]; 101 % of control under setting [2]; 90 % of control under setting [8]; 95 % of control under setting [4].

In the case of `Cc1nc2ccccc2c(C(=O)O)c1C`, the T/C was 102 % of control under setting [2], 96 % of control under setting [4] and 96 % of control under setting [5].

For `O=C(O)c1cc2c(cc1[N+](=O)[O-])OCO2`, the T/C by setting is: (dose: 100.0 mg/kg/injection, schedule: Q04DX002 (ip), vehicle: saline with Tween-80) 104 % of control; (dose: 200.0 mg/kg/injection, schedule: Q04DX002 (ip), vehicle: saline with Tween-80) 92 % of control; (dose: 400.0 mg/kg/injection, schedule: Q04DX002 (ip), vehicle: saline with Tween-80) 90 % of control.

Consider `C/C(CNc1nc(N)nc(N)c1N=Nc1ccc(Cl)cc1)=N\NC(N)=O`, for which the T/C runs as follows: (dose: 100.0 mg/kg/injection, schedule: Q01DX001 (ip), vehicle: saline) 94 % of control; (dose: 200.0 mg/kg/injection, schedule: Q01DX001 (ip), vehicle: saline) 98 % of control; (dose: 400.0 mg/kg/injection, schedule: Q01DX001 (ip), vehicle: saline) 94 % of control.

`N#CCC(=O)N1Cc2cc3ccccc3nc2C1`: the T/C (dose: 100.0 mg/kg/injection, schedule: Q04DX003 (ip), vehicle: saline sonified) was 115 % of control; the T/C (dose: 200.0 mg/kg/injection, schedule: Q04DX003 (ip), vehicle: saline sonified) is 95 % of control; the T/C (dose: 400.0 mg/kg/injection, schedule: Q04DX003 (ip), vehicle: saline sonified) is 101 % of control.

Turning to `O=C1OC(c2cccc(Cl)c2)=N/C1=C\c1ccc(Cl)cc1`, the T/C is 100 % of control under setting [12], 92 % of control under setting [13] and 92 % of control under setting [14].
